Measured values from patent US11292803B2, “Bioreducible N-oxide-based probes for imaging of hypoxia” (THE BOARD OF TRUSTEES OF THE UNIVERSITY OF ILLINOIS, priority 2018, dated 2022).

How the values were obtained:
[1] = Response to metal ions and reactive oxygen, nitrogen and sulfur species; details: 2 h, 37° C., phosphate buffer pH 7.4
Procedure: FIG. 9. Ratiometric fluorescent turn-on response of HyP-1 (2 μM) in the presence of various metal ions in 0.1 M potassium phosphate buffer (pH 7.4, 0.1% v/v CrEL) after 2 h incubation at 37° C. Concentrations used were 2 mM for Na^+, Mg^2+, K^+ and Ca^2+, and 50 μM for all other metal ions.
FIG. 10. Ratiometric fluorescence turn-on response of HyP-1 (2 μM) in the presence of various reactive oxygen, nitrogen and sulfur species (100 μM) in 0.1 M potassium phosphate buffer (pH 7.4, 0.1% v/v CrEL) after 2 h incubation at 37° C.
(§1) In addition to Fe(II), the response of HyP-1 to a variety of alkali, alkaline earth and transition metals was also determined. […] To further evaluate the stability of HyP-1, a 10 μM solution of the probe was exposed to ambient light and temperature for up to 5 days. Additionally, a 10 μM solution of HyP-1 supplemented with human plasma was incubated at 37° C. for 3 hours. […] As mentioned previously, a major limitation of 2-nitroimidazole-based hypoxia probes is their susceptibility to oxygen-independent reduction via two-electron processes, such as by bacterial nitroreductases. […] Finally, the photostability of both HyP-1 and red-HyP-1 was evaluated via continuous PA image acquisition at 770 nm over the course of 1 hour.

[2] = Chemostability under ambient light and temperature; format: physicochemical; details: 10 μM solution, up to 5 days
Procedure: FIG. 11. Fluorescence intensity (Ex.=670 nm) of HyP-1 (2 μM) at the indicated time points during extended incubation in 0.1 M potassium phosphate buffer (pH 7.4, 0.1% v/v CrEL) under ambient light and temperature. Represented as mean±SD (n=3).
as §1

E. coli cell lysates = assay: Incubation with bacterial cell lysates; format: biochemical; details: 37° C., 2 h
Procedure: FIG. 15. […] For the nitroreductase experiment, HyP-1 (2 μM) was incubated in the presence of nitroreductase (0.5 μg/mL) and NADH (100 μM) in 0.1 M potassium phosphate buffer (pH 7.4) at 37° C. for 2 h. For the bacterial experiment, bacteria were grown overnight, and cells were lysed via sonication. The suspension was centrifuged at 4000 rpm for 10 min, and the supernatant was removed. HyP-1 (2 μM) was incubated with cell lysate solution (1 mL) at 37° C. for 2 h.
as §1

[3] = test system: 4T1 murine mammary carcinoma cells; assay: Ratiometric fluorescence microscopy in living cells; format: cell-based; details: 4T1 cells, epifluorescence microscope Cy7/Cy5, after 6 hours
Procedure: After establishing excellent selectivity and responsiveness to hypoxic conditions in vitro, the performance of HyP-1 in living cells was evaluated before moving to in vivo studies. 4T1 murine mammary carcinoma cells were treated with a […] solution of HyP-1 and incubated at 37° C. either in a standard atmosphere containing 20% oxygen (normoxic conditions), or in an airtight chamber containing <0.1% oxygen (hypoxic conditions). Imaging was performed at 2, 4 and 6 hours using an epifluorescence microscope equipped with Cy5 and Cy7 filter sets to visualize HyP-1 and red-HyP-1, respectively (FIG. 5a).
(§2) Authenticated 4T1 cells were purchased from ATCC. Cells were grown in RPMI 1640 medium supplemented with 10% fetal bovine serum. Cells were cultured at 37° C. in 5% CO2 and 20% 02 for normoxic conditions. Hypoxic cell culture was performed by incubating cells in a sealed container with a Mitsubishi AnaeroPack™ anaerobic gas generator. Hypoxic conditions were verified with the use of a Mitsubishi RT Anaero-Indicator.
For fluorescence microscopy, cells were plated in 4-well chamber slides at an initial density of 1×10^4 cells/mL and allowed to grow until 60-80% confluent (approximately 6 days). Media was removed and cells were washed with PBS. […] Images were obtained using Cy5 and Cy7 filter cubes and analysed using ImageJ software (Version 1.50i).

4T1 cells = assay: Ratiometric fluorescence of cells, IVIS Spectrum; format: cell-based, murine; details: 4T1 cells, 5 μM HyP-1, 4 hours, IVIS Spectrum
Procedure: Ratiometric fluorescence imaging was also performed on 4T1 cells cultured in 6-well plates using an IVIS Spectrum imaging system. Cells were stained with a 5 μM solution of HyP-1 and incubated in either normoxic or hypoxic conditions for 4 hours (FIG. 5c). […] To further verify the in vitro results and determine the cellular factors responsible for HyP-1 reduction, cells were also stained with HyP-1 solutions containing either BIPY or DPI at multiple concentrations and incubated under hypoxic conditions.
as §2
For cellular imaging using the IVIS Spectrum imaging system, cells were plated in a 6-well plate at an initial density of 1.7×10^4 cells/mL and allowed to grow until 60-80% confluent (approximately 3 days). Media was removed and cells were washed with PBS. A […] solution of HyP-1 in serum-free medium was added, and cells were incubated under normoxic or hypoxic conditions for 4 hours. For BIPY and DPI experiments, the staining solution was supplemented with the compound at the appropriate concentration, and ratiometric turn-on was reported relative to a vehicle control. Images were obtained using excitation and emission filter sets of 675/720 nm and 745/800 nm. Regions of interest (ROIs) were drawn around cell-containing wells, and ratiometric signal was calculated by determining the ratio of radiant efficiency corresponding to 800 nm and 720 nm emissions.

ischemic hindlimb tissue = assay: In vivo PA imaging of hindlimb ischemia model; parameters: species or system BALB/c mice; details: intramuscular 50 μL, 50 μM; 1 hour after injection
Procedure: After observing the hypoxia-mediated response of HyP-1 in the hindlimb ischemia model, attention was turned to detecting this response using PA imaging. As described above, surgical ligation was employed to induce ischemia, and HyP-1 (50 μL, 50 μM) was administered via intramuscular injection.
All in vivo imaging experiments were performed with the approval of the Institutional Animal Care and Use Committee of the University of Illinois at Urbana-Champaign, following the principles outlined by the American Physiological Society on research animal use. Female mice (5-6 weeks old) were acquired from The Jackson Laboratory. […] Animals that underwent unsuccessful surgery as determined by laser Doppler perfusion imaging were excluded from analysis.
Prior to imaging, hair was removed from the lower body half by shaving and treating with a topical hair removal cream. Mice were positioned on their sides such that the area to be imaged was directly above the light source. Images were acquired using the Step and Shoot mode with 120 angles and 30 pulses per angle. Data was analysed using OsiriX software. […] ROIs of equal area were drawn to include all visible signal in the image, and mean PA signal in each ROI was recorded. Change in PA signal was calculated by subtracting signal from images taken prior to injection from those at given time points.

CC[N+]([O-])(CC)c1ccc(-c2cc(-c3ccccc3)c3n2[B-](F)(F)[N+]2=C(c4ccc(OC)cc4)C=C(c4ccccc4)C2=N3)cc1 [HyP-1, 4-(5,5-difluoro-7-(4-methoxyphenyl)-1,9-diphenyl-5H-5λ^4,6λ^4-dipyrrolo[1,2-c:2′,1′-f][1,3,5,2]triazaborinin-3-yl)-N,N-diethylaniline oxide]
turn-on response to alkali, alkaline earth and transition metals [1]: No significant turn-on | decomposition under ambient light and temperature [2]: no substantial decomposition | conversion to red-HyP-1 (E. coli cell lysates): minimal conversion | ratiometric fluorescence response, hypoxic versus normoxic control [3]: 1.6 fold | ratiometric response, hypoxic versus normoxic wells (4T1 cells): 2.5 fold | PA signal enhancement, ischemic tissue versus control leg (ischemic hindlimb tissue): 3.1 fold
